Assay results: ChEMBL document CHEMBL1144095, “A new labdane diterpenoid from Renealmia alpinia collected in the Suriname rainforest” (1999)

System: Saccharomyces cerevisiae
Experiment: Antifungal activity against Saccharomyces cerevisiae
Type: functional

C=C1CC[C@H]2C(C)(C)CCC[C@]2(C)[C@H]1CC1OC(O)C=C1C(=O)O (stereo partly specified)
IC12: 150 µg/mL
